Structures are written as SMILES. “And” between values parts separate entries of the source, which are not always exact repeats. Identical values can stand only once.

One test concerns the target T1, unmodified α7–5HT3 (UniProt P23979+P36544, M226I/T225I).
T1 construct: expressed in transfected cells; host or cells: HEK293 (ATCC CRL-1573), pcDNA3.1
Kind of test: Membrane potential assay, unmodified α7–5HT3. It is filed as cell-based, human α7 nAChR LBD, mouse 5HT3 IPD.

The target of test [1] is coca-5HT3 (α7(L141G,G175K,Y210F,Y217F)–5HT3) (Homo sapiens, UniProt P36544, G175K/L141G/Y210F/Y217F). Briefly: Membrane potential assay, coca-5HT3 in HEK293. The conditions noted are these: for Response / Max normalized Response: coca-5HT3; for activation of coca-5HT3: membrane potential assay dose response; for Max normalized Response: ED Fig 3b.
[2] abbreviates: a75HT3, [Nicotine] 0.0457247 uM.
Setting [3] is: coca5HT3, [Nicotine] 1.37037 uM.
Where [4] appears, read: coca5HT3, [Nicotine] 4.11111 uM.
[5] abbreviates: coca5HT3, [Nicotine] 12.3333 uM.

coca-5HT3 (α7(L141G,G175K,Y210F,Y217F)–5HT3), sequence (P36544 23-224 L141G/G175K/Y210F/Y217F): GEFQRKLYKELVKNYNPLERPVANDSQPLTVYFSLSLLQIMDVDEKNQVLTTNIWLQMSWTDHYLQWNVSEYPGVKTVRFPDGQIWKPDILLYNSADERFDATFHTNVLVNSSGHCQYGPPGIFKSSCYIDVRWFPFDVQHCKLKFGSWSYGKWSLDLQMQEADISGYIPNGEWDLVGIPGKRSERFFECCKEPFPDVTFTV
coca-5HT3 (α7(L141G,G175K,Y210F,Y217F)–5HT3), sequence (P23979 242-489, further chain): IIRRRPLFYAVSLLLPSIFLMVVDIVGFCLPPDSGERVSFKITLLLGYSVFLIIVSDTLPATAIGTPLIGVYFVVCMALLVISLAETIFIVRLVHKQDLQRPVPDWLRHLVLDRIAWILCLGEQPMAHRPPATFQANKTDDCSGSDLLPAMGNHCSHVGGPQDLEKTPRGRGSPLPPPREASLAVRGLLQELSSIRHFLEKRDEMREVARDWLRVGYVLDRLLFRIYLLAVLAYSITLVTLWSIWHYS
T1 sequence (P36544+P23979 fused P36544:T225I/P36544:M226I): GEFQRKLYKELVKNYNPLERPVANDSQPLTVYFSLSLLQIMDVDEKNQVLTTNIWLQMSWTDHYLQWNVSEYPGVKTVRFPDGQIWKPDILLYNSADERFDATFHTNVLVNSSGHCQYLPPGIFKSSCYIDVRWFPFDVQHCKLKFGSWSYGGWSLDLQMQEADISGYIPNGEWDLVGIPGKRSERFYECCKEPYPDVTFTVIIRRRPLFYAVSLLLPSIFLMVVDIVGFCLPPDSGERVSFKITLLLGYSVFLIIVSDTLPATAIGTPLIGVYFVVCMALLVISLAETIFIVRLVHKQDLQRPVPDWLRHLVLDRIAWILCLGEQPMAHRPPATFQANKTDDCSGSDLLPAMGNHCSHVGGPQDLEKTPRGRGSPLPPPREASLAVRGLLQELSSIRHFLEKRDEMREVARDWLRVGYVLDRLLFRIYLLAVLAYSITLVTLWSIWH

With `CN1CCC[C@H]1c1cccnc1` [nicotine], the “activity at unmutated α7–5HT3 chimeric channel” value at unmodified α7–5HT3 is given as “agonist”. Moreover, the “max response of each dose-response replicate” value at unmodified α7–5HT3 (a75HT3, Nicotine, used for normalization) was 0.486 (2×) and 0.554 (2×) and 0.608 (2×); in test [1] (coca5HT3, Nicotine, used for normalization), 0.477 and 0.607 and 0.383 and 0.555. Also, the “Max normalized response, AVG” value on unmodified α7–5HT3 (setting [2]) is 0.008293; on unmodified α7–5HT3 (a75HT3, [Nicotine] 0.137174 uM), 0.001891; at unmodified α7–5HT3 (a75HT3, [Nicotine] 0.411523 uM) it was 0.009729; on unmodified α7–5HT3 (a75HT3, [Nicotine] 1.23457 uM), 0.08187; at unmodified α7–5HT3 (a75HT3, [Nicotine] 3.7037 uM), 0.6699; on unmodified α7–5HT3 (a75HT3, [Nicotine] 11.1111 uM), 1. In addition, the “Max normalized response, AVG” value was 0.8953 at unmodified α7–5HT3 (a75HT3, [Nicotine] 33.3333 uM); 0.8025 on unmodified α7–5HT3 (a75HT3, [Nicotine] 100 uM); 0.06271 in test [1] (setting [3]); 0.05584 in test [1] (setting [4]); 0.06127 in test [1] (setting [5]); 0.1199 in test [1] (coca5HT3, [Nicotine] 37 uM). Further, the “Max normalized response, AVG” value in test [1] (coca5HT3, [Nicotine] 111 uM) amounted to 0.2452; in test [1] (coca5HT3, [Nicotine] 333 uM), 0.4535; in test [1] (coca5HT3, [Nicotine] 1000 uM), 0.6843; in test [1] (coca5HT3, [Nicotine] 3000 uM) it was 1. The “Max normalized response, replicates” value at unmodified α7–5HT3 (setting [2]) was 0 (2×) and 0.02166 (2×) and 0.01151 (2×); on unmodified α7–5HT3 (a75HT3, [Nicotine] 0.137174 uM) it was 0.002058 (2×) and 0.001805 (2×) and 0.001645 (2×); on unmodified α7–5HT3 (a75HT3, [Nicotine] 0.411523 uM), 0.004115 (2×) and 0.03069 (2×) and 0 (2×); on unmodified α7–5HT3 (a75HT3, [Nicotine] 1.23457 uM), 0.1152 (2×) and 0 (2×) and 0.09704 (2×); at unmodified α7–5HT3 (a75HT3, [Nicotine] 3.7037 uM) it was 0.8354 (2×) and 0.4874 (2×) and 0.5214 (2×); at unmodified α7–5HT3 (a75HT3, [Nicotine] 11.1111 uM) it was 1. Besides, the “Max normalized response, replicates” value at unmodified α7–5HT3 (a75HT3, [Nicotine] 33.3333 uM) was 0.8436 (2×) and 0.9711 (2×) and 0.9227 (2×); at unmodified α7–5HT3 (a75HT3, [Nicotine] 100 uM) it was 0.9585 (2×) and 0.8503 (2×) and 0.5988; in test [1] (setting [3]), 0.03243 and 0.1069 and 0.09061 and 0.02089; in test [1] (setting [4]), 0.06667 and 0.05451 and 0.03954 and 0.06266; in test [1] (setting [5]), 0.03964 and 0.07966 and 0.08402 and 0.04178; in test [1] (coca5HT3, [Nicotine] 37 uM), 0.1225 and 0.1426 and 0.196 and 0.01828. The “Max normalized response, replicates” value in test [1] (coca5HT3, [Nicotine] 111 uM) is 0.3009 and 0.2537 and 0.374 and 0.05222; in test [1] (coca5HT3, [Nicotine] 333 uM), 0.5495 and 0.5975 and 0.5157 and 0.1514; in test [1] (coca5HT3, [Nicotine] 1000 uM), 0.8198 and 0.7044 and 0.7249 and 0.4883; in test [1] (coca5HT3, [Nicotine] 3000 uM), 1. Also, the “Response, dose-response replicates (DR 1-6)” value at unmodified α7–5HT3 (setting [2]) is 0 (2×) and 0.012 (2×) and 0.007 (2×); on unmodified α7–5HT3 (a75HT3, [Nicotine] 0.137174 uM) it was 0.001; at unmodified α7–5HT3 (a75HT3, [Nicotine] 0.411523 uM), 0.002 (2×) and 0.017 (2×) and 0 (2×); at unmodified α7–5HT3 (a75HT3, [Nicotine] 1.23457 uM) it was 0.056 (2×) and 0 (2×) and 0.059 (2×); at unmodified α7–5HT3 (a75HT3, [Nicotine] 3.7037 uM), 0.406 (2×) and 0.27 (2×) and 0.317 (2×); on unmodified α7–5HT3 (a75HT3, [Nicotine] 11.1111 uM), 0.486 (2×) and 0.554 (2×) and 0.608 (2×). For the same molecule, the “Response, dose-response replicates (DR 1-6)” value on unmodified α7–5HT3 (a75HT3, [Nicotine] 33.3333 uM) is 0.41 (2×) and 0.538 (2×) and 0.561 (2×); on unmodified α7–5HT3 (a75HT3, [Nicotine] 100 uM), 0.291 and 0.531 (2×) and 0.517 (2×). Moreover, the “reduced potency for coca-5HT3 versus unmutated α7–5HT3” value in test [1] is on record as “greater than 300 fold”. Also, the “Response, dose-response replicates (DR 1-4)” value was 0.051 and 0.055 and 0.008 and 0.018 in test [1] (setting [3]); 0.026 and 0.024 (2×) and 0.037 in test [1] (setting [4]); 0.038 and 0.051 and 0.016 and 0.022 in test [1] (setting [5]); 0.068 (2×) and 0.119 and 0.007 in test [1] (coca5HT3, [Nicotine] 37 uM); 0.121 and 0.227 and 0.02 and 0.167 in test [1] (coca5HT3, [Nicotine] 111 uM); 0.285 and 0.313 and 0.058 and 0.305 in test [1] (coca5HT3, [Nicotine] 333 uM). In addition, the “Response, dose-response replicates (DR 1-4)” value in test [1] (coca5HT3, [Nicotine] 1000 uM) was 0.44 and 0.187 and 0.455; in test [1] (coca5HT3, [Nicotine] 3000 uM), 0.477 and 0.607 and 0.383 and 0.555. The Response in test [1] (conc 0.0137 uM, ED Fig. 2c) stood at 0.106; in test [1] (conc 0.123 uM, ED Fig. 2c), 0.216; in test [1] (conc 0.37 uM, ED Fig. 2c), 0.045; in test [1] (conc 10 uM, ED Fig. 2c), 0.163; in test [1] (conc 30 uM, ED Fig. 2c) it was 0.238.
On to `NC[C@H](O)c1ccc(O)c(O)c1` [Norepinephrine], for which the Response in test [1] (conc 0.457247 uM, ED Fig 3a) came out at 0.151; in test [1] (conc 1.37174 uM, ED Fig 3a), 0.081; in test [1] (conc 12.3457 uM, ED Fig 3a), 0.077; in test [1] (conc 37.037 uM, ED Fig 3a), 0.059; in test [1] (conc 111.111 uM, ED Fig 3a), 0.059; in test [1] (conc 333.333 uM, ED Fig 3a) it was 0.043.
With `CNC[C@H](O)c1ccc(O)c(O)c1` [Epinephrine], the Response in test [1] (conc 0.457247 uM, ED Fig 3a) is reported as 0.136; in test [1] (conc 1.37174 uM, ED Fig 3a), 0.141; in test [1] (conc 12.3457 uM, ED Fig 3a), 0.06; in test [1] (conc 37.037 uM, ED Fig 3a), 0.029; in test [1] (conc 111.111 uM, ED Fig 3a), 0.188.
Take `CC(=O)Oc1ccc2c3c1O[C@H]1[C@@H](OC(C)=O)C=C[C@H]4[C@@H](C2)N(C)CC[C@@]341` [heroin]: the Response in test [1] (conc 0.0137 uM, ED Fig. 2c) worked out at 0.058; in test [1] (conc 0.123 uM, ED Fig. 2c), 0.046; in test [1] (conc 0.37 uM, ED Fig. 2c), 0.054; in test [1] (conc 10 uM, ED Fig. 2c), 0.109; in test [1] (conc 30 uM, ED Fig. 2c) it was 0.105. The “activation of coca-5HT3” value in test [1] is “did not activate”.
On to `O=C(O[C@H]1C[C@H]2CC[C@@H](C1)[N+]21CCCC1)C(O)(c1ccccc1)c1ccccc1` [Trospium], for which the “Max normalized Response” value in test [1] (conc 0.137 uM) amounted to 0.127; in test [1] (conc 3.7 uM), 0.2063; in test [1] (conc 11.1 uM) it was 0.1005; in test [1] (conc 33.3 uM), 0.1217; in test [1] (conc 100 uM) it was 0.03704.
`CC(N)Cc1ccccc1` (stereo not shown) [amphetamine]: the Response stood at 0.05 in test [1] (conc 0.0137 uM, ED Fig. 2c); 0.058 in test [1] (conc 0.123 uM, ED Fig. 2c); 0.049 in test [1] (conc 0.37 uM, ED Fig. 2c); 0.028 in test [1] (conc 10 uM, ED Fig. 2c); 0.055 in test [1] (conc 30 uM, ED Fig. 2c). The “activation of coca-5HT3” value in test [1] is “did not activate”.
